From ChEMBL document CHEMBL4619766, “Eudesmacarbonate, a Eudesmane-Type Sesquiterpene from a Marine Filamentous Cyanobacterial Mat (Oscillatoriales) in the Florida Keys” (J Nat Prod, 2020) come the findings set out here.

The structures appear in SMILES notation.

Data set [1] is described as follows: Neurotoxicity in 7 dpf stage zebra fish PSA larvae assessed induction of larval immobilization at 38 uM measured over 90 mins. It is filed as toxicity, Danio rerio. The settings on record: zebrafish, 1.5 h.
The species named for data set [2] is Danio rerio. As to the kind of experiment: Induction of larval immobilization in 7 dpf stage zebra fish PSA assessed as immobilization recovery level at 190 uM incubated for 90 mins followed by medium replacement and measured within 10 mins relative to control. The following applies: zebrafish, in vivo, 1.5 h. Format: toxicity, organism-based.
Data set [3] in a line: Toxicity in 4 to 5 hpf stage wild type zebrafish AB embryo assessed as effect on heart rate at 9.4 to 94 uM under 14 hrs light and 10 hrs dark condition and measured at 3 dpf stage by microscopic analysis. The settings on record: in vivo. The arrangement: species or system Danio rerio.
Data set [4] in a line: Neurotoxicity in 4 to 5 hpf stage wild type zebrafish AB embryo assessed as irregular development of swim bladder dysfunction at 9.4 to 94 uM under 14 hrs light and 10 hrs dark condition and measured at 5 dpf stage by microscopic analysis. Format: toxicity, Danio rerio. The following applies: in vivo.
A short description of data set [5]: Neurotoxicity in 4 to 5 hpf stage wild type zebrafish AB embryo assessed as effect on spasms at 9.4 to 94 uM under 14 hrs light and 10 hrs dark condition and measured at 5 dpf stage by microscopic analysis. It is filed as toxicity, Danio rerio. The following applies: in vivo.
Data set [6] in a line: Neurotoxicity in 4 to 5 hpf stage wild type zebrafish AB embryo assessed as induction of motor incoordination at 9.4 to 94 uM under 14 hrs light and 10 hrs dark condition and measured at 5 dpf stage by microscopic analysis. The following applies: in vivo. It is filed as toxicity, Danio rerio.
For data set [7], the species on record is Danio rerio. As to the kind of experiment: Induction of larval immobilization in 7 dpf stage zebra fish PSA assessed as immobilization recovery level at 110 uM incubated for 90 mins followed by medium replacement and measured within 10 mins relative to control. The following applies: zebrafish, in vivo, 1.5 h. It is filed as toxicity, organism-based.
Data set [8] can be described thus: Neurotoxicity in 4 to 5 hpf stage wild type zebrafish AB embryo assessed as induction of head butting at 9.4 to 94 uM under 14 hrs light and 10 hrs dark condition and measured at 5 dpf stage by microscopic analysis. Format: toxicity, Danio rerio. The settings on record: in vivo.
Data set [9] in a line: Neurotoxicity in 7 dpf stage zebra fish PSA larvae assessed induction of larval immobilization at 110 to 190 uM measured within 45 mins. Format: toxicity, Danio rerio. The following applies: zebrafish, 0.75 h.
Data set [10] is described as follows: Neurotoxicity in 4 to 5 hpf stage wild type zebrafish AB embryo assessed as irregular inflated swim bladder at 9.4 to 94 uM under 14 hrs light and 10 hrs dark condition and measured at 5 dpf stage by microscopic analysis. Format: toxicity, Danio rerio. The settings on record: in vivo.
Data set [11] can be described thus: Neurotoxicity in 4 to 5 hpf stage wild type zebrafish AB embryo assessed as effect on spontaneous coiling frequency at >= 38 uM under 14 hrs light and 10 hrs dark condition and measured at 24 hpf stage by microscopic analysis. The following applies: in vivo. It is filed as toxicity, Danio rerio.
A short description of data set [12]: Toxicity in 4 to 5 hpf stage wild type zebrafish AB embryo assessed as induction of bradycardia at 4.5 to 22 nM under 14 hrs light and 10 hrs dark condition and measured at 3 dpf stage by microscopic analysis. The arrangement: species or system Danio rerio. The settings on record: in vivo, 0.022 µM.
Data set [13] is described as follows: Neurotoxicity in 4 to 5 hpf stage wild type zebrafish AB embryo assessed as induction of head butting at 4.5 to 22 nM under 14 hrs light and 10 hrs dark condition and measured at 5 dpf stage by microscopic analysis. Format: toxicity, Danio rerio. The following applies: in vivo, 0.022 µM.
Data set [14] in a line: Neurotoxicity in 4 to 5 hpf stage wild type zebrafish AB embryo assessed as induction of motor incoordination at 4.5 to 22 nM under 14 hrs light and 10 hrs dark condition and measured at 5 dpf stage by microscopic analysis. Format: toxicity, Danio rerio. The settings on record: in vivo, 0.022 µM.
A short description of data set [15]: Neurotoxicity in 4 to 5 hpf stage wild type zebrafish AB embryo assessed as effect on spasms at 4.5 to 22 nM under 14 hrs light and 10 hrs dark condition and measured at 5 dpf stage by microscopic analysis. Format: toxicity, Danio rerio. The following applies: in vivo, 0.022 µM.
Data set [16] can be described thus: Neurotoxicity in 4 to 5 hpf stage wild type zebrafish AB embryo assessed as irregular inflated swim bladder at 4.5 to 22 nM under 14 hrs light and 10 hrs dark condition and measured at 5 dpf stage by microscopic analysis. Format: toxicity, Danio rerio. The following applies: in vivo, 0.022 µM.
The nature of data set [17]: Neurotoxicity in 4 to 5 hpf stage wild type zebrafish AB embryo assessed as reduction in spontaneous coiling frequency at 4.5 to 22 nM under 14 hrs light and 10 hrs dark condition and measured at 24 hpf stage by microscopic analysis. Format: toxicity, Danio rerio. The settings on record: in vivo, 0.022 µM.

Turning to `CC(C)[C@@H]1CC[C@]2(C)CCC[C@]3(C)OC(=O)O[C@H]1[C@@H]23`, the Activity result in [1] is “Non-Toxic”; in [2], 47%; in data set [3] it was “Toxic”; in data set [4] it was “Toxic”; in [5] it was “Toxic”; in [6], “Toxic”. Moreover, the Activity is reported as 87% in [7]; “Toxic” in [8]; “Toxic” in [9]; “Toxic” in [10]; “Toxic” in [11].

For the molecule `C=C(C=O)C[C@@H]1C[C@H](O)[C@]2(C)O[C@@H]3C[C@@H]4O[C@@H]5C[C@]6(C)O[C@]7(C)CC[C@@H]8O[C@@H]9C[C@]%10(C)O[C@@H]%11C(C)=CC(=O)O[C@H]%11C[C@H]%10O[C@H]9C[C@@H](C)[C@H]8O[C@H]7C[C@H]6O[C@@]5(C)C/C=C\[C@H]4O[C@H]3C[C@H]2O1` [BREVETOXIN B], the Activity entry is listed as “Toxic” in data set [12]; “Toxic” in [13]; “Toxic” in data set [14]; “Toxic” in [15]; “Toxic” in data set [16]; “Non-Toxic” in data set [17].
